Experimental data from patent US20240254103A9, “NOVEL PYRIMIDINE DERIVATIVE, AND COMPOSITION FOR PREVENTING OR TREATING NEURODEGENERATIVE DISEASES AND CANCER, COMPRISING SAME” (WHAN IN PHARMACEUTICAL CO., LTD., priority 2020, published 2024).

Experiments:
mutant LRRK2 (G2019S) = biological target: T1, mutant LRRK2 (G2019S) (Homo sapiens, UniProt Q5S007, G2019S); experiment: Inhibitory activity against LRRK2: competition binding to ligand-affinity beads, DNA-tagged kinase quantitated by qPCR; details: 100 nM compound; % of ctrl; read-out: Remaining kinase activity(%) at 100 nM LRRK2(G2019Smutant)
T1 construct: DNA tag for qPCR detection (not a peptide; the protein part that carries it is not described); made in house; host or cells: HEK 293 cells (the same paragraph also describes T7 phage grown in E. coli BL21)
Summary of the method: (§1)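 Human LRRK2 H970–E2527, wild type or G2019S, was expressed as DNA-tagged kinase (T7 phage in E. coli or HEK293) and competed for 1 h against a biotinylated ligand on streptavidin beads. Bound kinase was eluted with 0.5 µM free ligand and quantified by qPCR. Values are % of control at 100 nM (both forms) and at 10 and 50 nM (wild type).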

wild-type LRRK2 = biological target: T2, wild-type LRRK2 (Homo sapiens, UniProt Q5S007); experiment: as above; details: % of ctrl; for remaining binding at 0.1 µM: 100 nM compound, read-out: Remaining kinase activity(%) at 100 nM LRRK2(WT)
T2 construct: DNA tag for qPCR detection (not a peptide; the protein part that carries it is not described); made in house; host or cells: HEK 293 cells (the same paragraph also describes T7 phage grown in E. coli BL21)
Summary of the method: as §1

[1] = Blood-brain barrier (BBB) penetration, LC-MS/MS of plasma and brain tissue after oral administration; type: in vivo; details: oral 10 mg/kg, three hours after administration
Experimental: Test substances were each orally administered at a dose of 10 mg/kg. Three hours later, the animals were sacrificed and blood samples were immediately taken from the heart and centrifuged to obtain plasma samples. In order to remove the blood remaining in the body, 20 ml of saline containing 10 U/ml heparin were perfused through the heart, after which the brain was excised. The brain was homogenized together with three volumes of a PBS buffer. For quantitative analysis in the prepared plasma and brain tissue, advantage was taken of LC-MS/MS (Agilent, Santa Clara, Calif., USA). Separation in LC was conducted with a mobile phase consisting of 80% of acetonitrile and 20% of water containing 0.1% formic acid. For each substance, the eluting buffer was run for a total of 3 minutes at a flow rate of 0.3 ml/min. Each substance was quantitated using a multiple reaction monitoring method (for comparative compounds 4 and 5, the oral Parkinson's disease drugs DNL-151 and DNL-201 were used as LRRK2 protein inhibitors, respectively).

T2 sequence (Q5S007 970-2527): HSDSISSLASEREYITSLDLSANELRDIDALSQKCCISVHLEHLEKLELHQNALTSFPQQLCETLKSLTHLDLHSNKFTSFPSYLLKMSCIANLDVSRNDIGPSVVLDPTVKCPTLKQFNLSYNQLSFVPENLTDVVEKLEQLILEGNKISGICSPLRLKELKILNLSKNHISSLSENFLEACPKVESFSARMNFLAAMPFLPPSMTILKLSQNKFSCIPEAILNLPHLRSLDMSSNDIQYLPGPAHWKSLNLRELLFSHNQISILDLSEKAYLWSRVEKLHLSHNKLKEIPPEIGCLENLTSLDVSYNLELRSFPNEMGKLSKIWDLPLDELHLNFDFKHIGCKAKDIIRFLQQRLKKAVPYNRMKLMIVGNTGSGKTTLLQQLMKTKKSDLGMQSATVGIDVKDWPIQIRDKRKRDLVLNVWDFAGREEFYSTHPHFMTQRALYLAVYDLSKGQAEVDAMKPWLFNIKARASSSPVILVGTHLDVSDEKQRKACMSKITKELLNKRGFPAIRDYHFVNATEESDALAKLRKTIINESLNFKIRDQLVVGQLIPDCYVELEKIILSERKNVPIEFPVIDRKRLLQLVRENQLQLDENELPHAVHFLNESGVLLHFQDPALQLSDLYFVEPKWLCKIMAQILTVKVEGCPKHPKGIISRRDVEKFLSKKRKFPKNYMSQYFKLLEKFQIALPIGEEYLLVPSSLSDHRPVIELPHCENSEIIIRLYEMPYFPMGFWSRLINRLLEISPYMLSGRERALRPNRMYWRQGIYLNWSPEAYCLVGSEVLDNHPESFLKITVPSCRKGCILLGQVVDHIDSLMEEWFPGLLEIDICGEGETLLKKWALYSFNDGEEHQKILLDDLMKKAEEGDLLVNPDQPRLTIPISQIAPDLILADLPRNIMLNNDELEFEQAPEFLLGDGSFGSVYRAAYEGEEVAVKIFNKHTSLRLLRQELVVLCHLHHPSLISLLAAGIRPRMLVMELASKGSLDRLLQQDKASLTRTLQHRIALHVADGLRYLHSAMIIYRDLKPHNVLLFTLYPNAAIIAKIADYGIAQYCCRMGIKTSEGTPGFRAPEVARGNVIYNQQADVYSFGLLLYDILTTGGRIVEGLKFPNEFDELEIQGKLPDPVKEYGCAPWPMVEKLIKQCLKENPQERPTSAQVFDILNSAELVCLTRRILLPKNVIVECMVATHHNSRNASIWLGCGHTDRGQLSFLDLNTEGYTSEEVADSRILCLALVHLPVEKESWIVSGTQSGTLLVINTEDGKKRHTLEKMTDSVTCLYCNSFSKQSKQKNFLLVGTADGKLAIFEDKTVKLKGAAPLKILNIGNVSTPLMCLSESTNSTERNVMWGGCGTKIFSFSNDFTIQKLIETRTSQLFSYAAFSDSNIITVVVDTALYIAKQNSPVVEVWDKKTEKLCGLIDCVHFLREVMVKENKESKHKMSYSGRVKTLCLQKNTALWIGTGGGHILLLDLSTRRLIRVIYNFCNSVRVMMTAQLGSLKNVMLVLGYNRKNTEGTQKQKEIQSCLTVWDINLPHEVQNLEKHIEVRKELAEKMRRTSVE
T1 sequence (Q5S007 970-2527 G2019S): as the sequence (Q5S007 970-2527) above, with G1050S counted along it

remaining binding at 0.1 µM (mutant LRRK2 (G2019S)) | remaining binding at 0.1 µM (wild-type LRRK2) | remaining binding at 0.01 µM (wild-type LRRK2; 10 nM compound, read-out: LRRK2(WT) Remaining kinase activity(%) at 10 nM) | remaining binding at 0.05 µM (wild-type LRRK2; 50 nM compound, read-out: LRRK2(WT) Remaining kinase activity(%) at 50 nM) | effective concentration in the brain tissue, fold higher compared to comparative compound-4 (DNL-151) [1] | effective concentration in the brain tissue, fold higher compared to comparative compound-5 (DNL-201) [1] | SMILES
< 30% | < 50% | – | – | – | – | COc1cc(C(=O)N2CCOCC2)ccc1Nc1ncc(C(F)(F)F)c(-c2cnn(C3CCOCC3)c2)n1 [Compound 29, (3-methoxy-4-((4-(1-(tetrahydro-2H-pyran-4-yl)-1H-pyrazol-4-yl)-5-(trifluoromethyl)pyrimidin-2-yl)amino)phenyl)(morpholino)methanone]
< 30% | < 10% | – | – | – | – | COc1cc(C(=O)N2CCC(N3CCN(C)CC3)CC2)ccc1Nc1ncc(C(F)(F)F)c(-c2cnn(C)c2)n1 [Compound 31, (3-methoxy-4-((4-(1-methyl-1H-pyrazol-4-yl)-5-(trifluoromethyl)pyrimidin-2-yl)amino)phenyl)(4-(4-methylpiperazin-1-yl)piperidin-1-yl)methanone]
< 30% | < 50% | – | – | – | – | COc1cc(C(=O)N2CCC3(CC2)COC3)ccc1Nc1ncc(Cl)c(-c2cnn(C)c2)n1 [Compound 32, (4-((5-chloro-4-(1-methyl-1H-pyrazol-4-yl)pyrimidin-2-yl)amino)-3-methoxyphenyl)(2-oxa-7-azaspiro[3.5]nonan-7-yl)methanone]
< 50% | < 30% | – | – | – | – | COc1cc(C(=O)N2CC3(CCO3)C2)ccc1Nc1ncc(Cl)c(-c2cnn(C)c2)n1 [Compound 33, (4-((5-chloro-4-(1-methyl-1H-pyrazol-4-yl)pyrimidin-2-yl)amino)-3-methoxyphenyl)(1-oxa-6-azaspiro[3.3]heptan-6-yl)methanone]
< 30% | < 10% | – | – | – | – | COc1cc(C(=O)N2CCN(C(C)C)CC2)ccc1Nc1ncc(Cl)c(-c2cnn(C)c2)n1 [Compound 34, (4-((5-chloro-4-(1-methyl-1H-pyrazol-4-yl)pyrimidin-2-yl)amino)-3-methoxyphenyl)(4-isopropylpiperazin-1-yl)methanone]
< 10% | < 30% | – | – | – | – | COc1cc(C(=O)N2CCC3(CC2)COC3)ccc1Nc1ncc(Cl)c(-c2cnn(C3CCOCC3)c2)n1 [Compound 35, (4-((5-chloro-4-(1-(tetrahydro-2H-pyran-4-yl)-1H-pyrazol-4-yl)pyrimidin-2-yl)amino)-3-methoxyphenyl)(2-oxa-7-azaspiro[3.5]nonan-7-yl)methanone]
< 10% | < 10% | < 50% | < 30% | 1.64 fold | 2.77 fold | COc1cc(C(=O)N2CCOCC2)ccc1Nc1ncc(Cl)c(-c2cnn(C(C)C)c2)n1 [Compound 37, (4-((5-chloro-4-(1-isopropyl-1H-pyrazol-4-yl)pyrimidin-2-yl)amino)-3-methoxyphenyl)(morpholino)methanone]
< 10% | < 10% | – | – | – | – | COc1cc(C(=O)NC2CCN(C)CC2)ccc1Nc1ncc(Cl)c(-c2cnn(C)c2)n1 [Compound 38, 4-((5-chloro-4-(1-methyl-1H-pyrazol-4-yl)pyrimidin-2-yl)amino)-3-methoxy-N-(1-methylpiperidin-4-yl)benzamide]
< 50% | < 30% | – | – | – | – | COc1cc(C(=O)N2CCC(F)(F)CC2)ccc1Nc1ncc(Cl)c(-c2cnn(C)c2)n1 [Compound 41, (4-((5-chloro-4-(1-methyl-1H-pyrazol-4-yl)pyrimidin-2-yl)amino)-3-methoxyphenyl)(4,4-difluoropiperidin-1-yl)methanone]
< 50% | < 30% | – | – | – | – | COc1cc(C(=O)N2CCOC(C)(C)C2)ccc1Nc1ncc(Cl)c(-c2cnn(C)c2)n1 [Compound 42, (4-((5-chloro-4-(1-methyl-1H-pyrazol-4-yl)pyrimidin-2-yl)amino)-3-methoxyphenyl)(2,2-dimethylmorpholino)methanone]
< 30% | < 10% | – | – | – | – | COc1cc(C(=O)N2CC(N3CCOCC3)C2)ccc1Nc1ncc(Cl)c(-c2cnn(C)c2)n1 [Compound 43, (4-((5-chloro-4-(1-methyl-1H-pyrazol-4-yl)pyrimidin-2-yl)amino)-3-methoxyphenyl)(3-morpholinoazetidin-1-yl)methanone]
< 30% | < 10% | – | – | – | – | COc1cc(C(=O)N2CCN(C(C)=O)CC2)ccc1Nc1ncc(Cl)c(-c2cnn(C)c2)n1 [Compound 44, 1-(4-(4-((5-chloro-4-(1-methyl-1H-pyrazol-4-yl)pyrimidin-2-yl)amino)-3-methoxybenzoyl)piperazin-1-yl)ethan-1-one]
< 30% | < 30% | – | – | – | – | COc1cc(C(=O)N2CCN(C(C)C)CC2)ccc1Nc1ncc(C(F)(F)F)c(-c2cnn(C)c2)n1 [Compound 45, (4-isopropylpiperazin-1-yl)(3-methoxy-4-((4-(1-methyl-1H-pyrazol-4-yl)-5-(trifluoromethyl)pyrimidin-2-yl)amino)phenyl)methanone]
< 10% | < 10% | – | – | – | – | COc1cc(C(=O)N2CCOCC2)c(F)cc1Nc1ncc(C(F)(F)F)c(-c2cnn(C)c2)n1 [Compound 46, (2-fluoro-5-methoxy-4-((4-(1-methyl-1H-pyrazol-4-yl)-5-(trifluoromethyl)pyrimidin-2-yl)amino)phenyl)(morpholino)methanone]
< 10% | < 10% | – | – | – | – | COc1cc(C(=O)N2CCOCC2)c(F)cc1Nc1ncc(Cl)c(-c2cnn(C(C)C)c2)n1 [Compound 49, (4-((5-chloro-4-(1-isopropyl-1H-pyrazol-4-yl)pyrimidin-2-yl)amino)-2-fluoro-5-methoxyphenyl)(morpholino)methanone]
< 10% | < 10% | – | – | – | – | COc1cc(C(=O)N2CCN(C3COC3)CC2)ccc1Nc1ncc(Cl)c(-c2cnn(C)c2)n1 [Compound 50, (4-((5-chloro-4-(1-methyl-1H-pyrazol-4-yl)pyrimidin-2-yl)amino)-3-methoxyphenyl)(4-(oxetan-3-yl)piperazin-1-yl)methanone]
< 30% | < 30% | – | – | – | – | COc1cc(C(=O)N2C[C@H]3CC[C@@H](C2)O3)ccc1Nc1ncc(Cl)c(-c2cnn(C)c2)n1 [Compound 51, ((1R,5S)-8-oxa-3-azabicyclo[3.2.1]octan-3-yl)(4-((5-chloro-4-(1-methyl-1H-pyrazol-4-yl)pyrimidin-2-yl)amino)-3-methoxyphenyl)methanone]
< 30% | < 50% | – | – | – | – | COc1cc(C(=O)c2ccncc2)ccc1Nc1ncc(Cl)c(-c2cnn(C(C)C)c2)n1 [Compound 54, (4-((5-chloro-4-(1-isopropyl-1H-pyrazol-4-yl)pyrimidin-2-yl)amino)-3-methoxyphenyl)(pyridin-4-yl)methanone]
< 10% | < 10% | – | – | – | – | CCn1cc(-c2nc(Nc3ccc(C(=O)N4CCOCC4)cc3OC)ncc2Cl)cn1 [Compound 56, (4-((5-chloro-4-(1-ethyl-1H-pyrazol-4-yl)pyrimidin-2-yl)amino)-3-methoxyphenyl)(morpholino)methanone]
< 10% | < 10% | – | – | – | – | CCCn1cc(-c2nc(Nc3ccc(C(=O)N4CCOCC4)cc3OC)ncc2Cl)cn1 [Compound 57, (4-((5-chloro-4-(1-propyl-1H-pyrazol-4-yl)pyrimidin-2-yl)amino)-3-methoxyphenyl)(morpholino)methanone]
< 10% | < 30% | – | – | – | – | COc1cc(C(=O)N2CCOCC2)ccc1Nc1ncc(Cl)c(-c2cnn(C3CC3)c2)n1 [Compound 58, (4-((5-chloro-4-(1-cyclopropyl-1H-pyrazol-4-yl)pyrimidin-2-yl)amino)-3-methoxyphenyl)(morpholino)methanone]
< 10% | < 10% | – | – | – | – | COc1cc(C(=O)N2CCOCC2)ccc1Nc1ncc(Cl)c(-c2cnn(C(C)(C)C)c2)n1 [Compound 59, (4-((4-(1-(tert-butyl)-1H-pyrazol-4-yl)-5-chloropyrimidin-2-yl)amino)-3-methoxyphenyl)(morpholino)methanone]
